The test system of one test is Human Papilloma Virus (HPV). As to the kind of experiment: Comparative tests: cervical lesions caused by HPV, 44 female patients, observation after 10 days. The note with it: undiluted composition. The test is classed as in vivo. The protocol: The hereunder mentioned comparative tests are aimed to establish observation(s) after 10 days on 44 female human patients by Controlled Clinical Trial on Cervical Lesions (wounds) caused by the Human Papilloma Virus (HPV) which is a double stranded DNA non enveloped virus. […] In order to establish the non-activity of possible placebo's to be used in the clinical trial, 44 HPV infected patients were treated with a one-time dose of Placebos compositions.
On to `C=C(C)[C@H](CO)CC=C(C)C` [Placebo 21, Lavendulol], for which the “Observation(s) after 10 days: regression of lesions on the surface of the cervix” value (from here on “Observation(s) after 10 days: regression”) was “No regression of lesions”.

As for (R)-Carvone + (S)-Carvone [Placebo 3], the “Observation(s) after 10 days: regression” value is “No regression of lesions”.

As to “(cis+trans)-1,2-(+)-Limonene oxide [Placebo 18]”, the “Observation(s) after 10 days: regression” value was “No regression of lesions”.

The next test has as its system human DNA viruses (HSV, ADV) and RNA viruses (CVB1, EV71).
Assay: not given
The note with it: each component used alone; cited from earlier work.
As for `CC(C)[C@]12CC(=O)[C@H](C)[C@H]1C2` [alpha-thujone], the antiviral activity result is reported as “No activity”.

For `C=C1CC/C=C(\C)CC[C@@H]2[C@@H]1CC2(C)C` [beta-caryophylene], the antiviral activity entry is reported as “No activity”.

Consider `C=CC(=C)CCC=C(C)C` [beta-myrcene], for which the antiviral activity entry was “No activity”.

For `C=C(C)C1CC=C(C)C(=O)C1` (stereo not shown) [carvone], the antiviral activity entry is “No activity”.

Turning to `CC12CCC(CC1)C(C)(C)O2` [cineole], the antiviral activity result was “No activity”.

For the compound `CC(C)=CCCC(C)=CCCC(C)=CCO` [farnesol], the antiviral activity result is “No activity”.

`CC12CCC(C1)C(C)(C)C2=O` (stereo not shown) [fenchone]: the antiviral activity result is on record as “No activity”.

As for `CC(C)=CCC/C(C)=C/CO` [geraniol], the antiviral activity entry is listed as “No activity”.

For another test, the system named is ES strain of lymphomatosis virus.
Assay: not given
Conditions: US 3,429,971 table 2; cited from earlier work.
In the case of `CC(C)=CCC/C(C)=C/CO` [Trans-2,6-dimethyl-2,6,octadiene-8-ol, (2E)-3,7-dimethylocta-2,6-dien-1-ol], the No. cures is listed as 0.

The next test concerns adenovirus type 6.
Assay: not given
The note with it: in vitro; cited from earlier work.
For `C=C(C)C1CC=C(C)C(=O)C1` (stereo not shown) [carvone], the “antiviral activity against adenovirus type 6” value is given as “antiviral activity”.

The record behind these values is patent US8883859B1, “Viral inhibitor compositions for in vivo therapeutic use comprising a combination of (-) -carvone, geraniol and a further essential oil component” (Cesa Alliance S.A., priority 2010, dated 2014).
